We go through 7 molecules from DBAASP.

For orientation: MIC means the smallest concentration in the dilution series that meets the test's criterion for growth inhibition. The low end stands for a more susceptible organism, the high end for a less susceptible organism.

Structures are written as SMILES. Converted amounts (≈) assume the structure as drawn.

Test in all cases: ≥ marks a high value that may be exact or a test limit, other limits are often not marked, values filed in µg/mL are converted to µM
Assay [1] concerns Candida albicans CIB 45437.
In assay [2] the test system is Escherichia coli ATCC 25922.
The test system of assay [3] is Escherichia coli CIB 84492.
For assay [4], the system named is Staphylococcus aureus ATCC 25923.
The subject of assay [5] is Staphylococcus aureus CIB 85462.
Assay [6] concerns Acinetobacter baumannii I NM8.
Assay [7] has as its system Escherichia coli ATCC 25726.
Assay [8] has as its system Klebsiella pneumoniae ATCC 700603.
Assay [9] has as its system Bacillus subtilis ATCC 6633.
For assay [10], the system named is Candida albicans ATCC 20032.
Assay [11] has as its system Escherichia coli ATCC 10536.
Assay [12] has as its system Saccharomyces cerevisiae IFO 1850.
Assay [13] relates to Acinetobacter baumannii NM35.
The test system of assay [14] is Acinetobacter baumannii NM8.
Assay [15] concerns Candida albicans ATCC 90028.
In assay [16] the test system is Pseudomonas aeruginosa ATCC 27853.
Assay [17] relates to Staphylococcus epidermidis RP62A/1.
The subject of assay [18] is Staphylococcus epidermidis RP62A.
The test system of assay [19] is Stenotrophomonas maltophilia B32/4.
In assay [20] the test system is Bacillus anthracis Sterne 34F2.
Assay [21] concerns Bacillus subtilis var. niger ATCC 9372.
A further assay deals with Escherichia coli K91BK.

As to `CC[C@H](C)[C@@H]1NC(=O)[C@H](C)NC(=O)[C@@H](NC(=O)[C@H](Cc2ccccc2)NC(=O)[C@@H](NC(=O)[C@@H](NC(=O)[C@@H]2CCCN2C(=O)[C@H](CC(C)C)NC(=O)[C@@H](NC(=O)[C@H](CC(N)=O)NC(=O)[C@H](C)NC(=O)[C@H](C)NC(=O)[C@@H](NC(=O)[C@H](CCCN=C(N)N)NC(=O)[C@@H](NC(=O)[C@@H](NC(=O)[C@H](C)NC(=O)[C@@H]2CCCN2C(=O)[C@H](CC(C)C)NC(=O)[C@@H](N)Cc2ccccc2)C(C)C)[C@@H](C)CC)C(C)C)C(C)C)[C@@H](C)O)C(C)C)CSSC[C@@H](C(=O)O)NC(=O)[C@H](CCCCN)NC(=O)[C@H](CCCCN)NC(=O)[C@H](CO)NC1=O` [FLPAVIRVAANVLPTVFCAISKKC], the minimal inhibitory concentration (MIC) in [1] is ≥ 50 µM; in [2], 50 µM (≈ 128 µg/mL); in assay [3], 25 µM (≈ 64 µg/mL); in assay [4], 6.25 µM (≈ 16 µg/mL); in [5] it was 12.5 µM (≈ 32 µg/mL).
As to `CC(C)C[C@H](NC(=O)CNC(=O)CNC(=O)[C@H](CCCCN)NC(=O)[C@H](C)NC(=O)[C@H](Cc1ccccc1)NC(=O)[C@H](CCCCN)NC(=O)[C@H](CCCCN)NC(=O)[C@H](CC(C)C)NC(=O)CNC(=O)[C@H](CCC(=O)O)NC(=O)[C@H](CC(C)C)NC(=O)[C@H](C)NC(=O)[C@H](CO)NC(=O)[C@H](CO)NC(=O)[C@H](Cc1c[nH]c2ccccc12)NC(=O)[C@H](Cc1ccccc1)NC(=O)CN)C(=O)N[C@@H](CCC(=O)O)C(=O)N[C@@H](C)C(=O)N[C@@H](CC(C)C)C(=O)N[C@H](C(=O)N[C@@H](CC(N)=O)C(=O)N1CCC[C@H]1C(=O)N[C@@H](CCCCN)C(=O)O)[C@@H](C)O` [GFWSSALEGLKKFAKGGLEALTNPK], the MIC in [6] is 12.5 µM (≈ 33.1 µg/mL); in assay [7], ≥ 50 µM; in [8], > 50 µM; in assay [4], > 100 µM.
For `CC[C@H](C)[C@H](NC(=O)CN)C(=O)NCC(=O)N[C@H](C(=O)N[C@@H](CCCCN)C(=O)N[C@@H](Cc1ccccc1)C(=O)N[C@@H](CC(C)C)C(=O)NCC(=O)NCC(=O)N[C@H](C(=O)N[C@@H](CCCCN)C(=O)N[C@H](C(=O)N[C@@H](C)C(=O)N[C@@H](CC(C)C)C(=O)N[C@@H](CCCCN)C(=O)NCC(=O)N[C@@H](C)C(=O)N[C@@H](CC(C)C)C(=O)N[C@@H](CCCCN)C(=O)N[C@@H](CCC(=O)O)C(=O)N[C@@H](CC(C)C)C(=O)N[C@@H](C)C(=O)N[C@@H](CO)C(=O)N[C@H](C(=O)N[C@@H](Cc1ccc(O)cc1)C(=O)N[C@H](C(=O)N[C@@H](CC(N)=O)C(N)=O)C(C)C)[C@@H](C)O)[C@@H](C)O)C(C)C)[C@@H](C)O` [GIGTKFLGGVKTALKGALKELASTYVN], the MIC was determined as 27.4 µM (≈ 75 µg/mL) in assay [9], 27.4 µM (≈ 75 µg/mL) in assay [10], 3.43 µM (≈ 9.4 µg/mL) in assay [2] and 1.72 µM (≈ 4.7 µg/mL) in assay [4].
As for `CC(C)C[C@H](NC(=O)[C@H](CCCN=C(N)N)NC(=O)CNC(=O)CNC(=O)[C@@H](NC(=O)[C@H](CCCCN)NC(=O)[C@@H]1CCCN1C(=O)[C@H](Cc1ccccc1)NC(=O)[C@H](Cc1ccc(O)cc1)NC(=O)[C@H](CCC(N)=O)NC(=O)[C@H](CCCCN)NC(=O)CN)C(C)C)C(=O)N[C@@H](CO)C(=O)NCC(=O)N[C@@H](CCCCN)C(=O)N[C@@H](C)C(=O)N1CCC[C@H]1C(=O)N[C@@H](CC(C)C)C(=O)N[C@@H](C)C(=O)N[C@@H](C)C(=O)N[C@@H](CCCCN)C(=O)N[C@H](C(=O)N[C@@H](Cc1cnc[nH]1)C(=O)N[C@@H](CCCN=C(N)N)C(=O)N[C@@H](CCCN=C(N)N)C(=O)N[C@@H](CC(C)C)C(=O)N[C@@H](CCCCN)C(=O)N1CCC[C@H]1C(N)=O)[C@@H](C)O` [GKQYFPKVGGRLSGKAPLAAKTHRRLKP], the MIC in assay [9] was 3.92 µM (≈ 12 µg/mL); in assay [11], 9.14 µM (≈ 28 µg/mL); in assay [12] it was 3.92 µM (≈ 12 µg/mL).
For the molecule `CC[C@H](C)[C@H](NC(=O)CNC(=O)[C@H](CCCCN)NC(=O)[C@H](CCCCN)NC(=O)[C@H](CC(C)C)NC(=O)[C@H](CO)NC(=O)CNC(=O)[C@H](CC(C)C)NC(=O)CNC(=O)[C@H](C)NC(=O)[C@H](CCCCN)NC(=O)[C@H](Cc1ccccc1)NC(=O)[C@@H](NC(=O)[C@H](CCCCN)NC(=O)[C@H](CCCCN)NC(=O)[C@H](CC(C)C)NC(=O)CN)[C@@H](C)CC)C(=O)N[C@@H](C)C(=O)N[C@@H](C)C(=O)N[C@@H](Cc1cnc[nH]1)C(=O)N[C@H](C(=O)N[C@@H](C)C(=O)N[C@@H](CO)C(N)=O)C(C)C` [GLKKIFKAGLGSLKKGIAAHVAS], the minimal inhibitory concentration (MIC) is 20 µM (≈ 45.9 µg/mL) in assay [13]; 10 µM (≈ 22.9 µg/mL) in [14]; ≥ 40 µM in assay [15]; 10 µM (≈ 22.9 µg/mL) in [7]; > 250 µM in assay [4].
As to `CC[C@H](C)[C@H](N)C(=O)N[C@@H](CC(C)C)C(=O)NCC(=O)N[C@@H](CCCCN)C(=O)N[C@@H](CC(C)C)C(=O)N[C@@H](CC(C)C)C(=O)N[C@@H](CCCCN)C(=O)N[C@H](C(=O)N[C@@H](C)C(=O)N[C@@H](C)C(=O)NCC(=O)N[C@@H](CC(C)C)C(=O)N[C@@H](CC(C)C)C(=O)N[C@@H](CO)C(=O)N[C@@H](CC(N)=O)C(=O)N[C@@H](CC(C)C)C(N)=O)[C@@H](C)O` [ILGKLLKTAAGLLSNL], the MIC in assay [14] is ≥ 64 µM; in [15] it was ≥ 128 µM; in assay [7], ≥ 64 µM; in [8] it was 64 µM (≈ 104 µg/mL); in assay [16] it was 64 µM (≈ 104 µg/mL); in assay [4] it was 8 µM (≈ 13 µg/mL). Besides, the MIC is 4 µM (≈ 6.5 µg/mL) in assay [17], 4 µM (≈ 6.5 µg/mL) in assay [18] and ≥ 64 µM in [19].
In the case of `CC(=O)N[C@@H](CCCN=C(N)N)C(=O)N[C@@H](CCCN=C(N)N)C(=O)N[C@@H](CCCN=C(N)N)C(=O)N[C@@H](C)C(=O)N[C@@H](C)C(=O)N[C@@H](Cc1ccccc1)C(=O)N[C@@H](C)C(=O)N[C@@H](C)C(=O)N[C@@H](Cc1c[nH]c2ccccc12)C(=O)N[C@@H](C)C(=O)N[C@@H](C)C(=O)N[C@@H](Cc1ccccc1)C(=O)N[C@@H](C)C(=O)N[C@@H](C)C(=O)N[C@@H](CCCN=C(N)N)C(=O)N[C@@H](CCCN=C(N)N)C(=O)N[C@@H](CCCN=C(N)N)C(N)=O` [RRRAAFAAWAAFAARRR], the MIC is ≥ 100 µM in assay [20], ≥ 50 µM in [21] and ≥ 100 µM in the assay on Escherichia coli K91BK.
